CC(C)c1nc(N(C)S(C)(=O)=O)nc(-c2ccc(F)cc2)c1/C=C/[C@@H](O)C[C@@H](O)CC(=O)[O-].CC(C)c1nc(N(C)S(C)(=O)=O)nc(-c2ccc(F)cc2)c1/C=C/[C@@H](O)C[C@@H](O)CC(=O)[O-].[Ca+2]
solubility (mole fraction)
Conditions	in ethanol	in ethylene glycol	in isopropanol	in n-butanol	in propylene glycol	in sec-butanol	in water
298.15 K	0.000337	0.000255	0.000304	0.000429	0.0156	7.17e-05	5.4e-06
303.15 K	0.000392	0.000311	0.000366	0.000511	0.0164	8e-05	7.02e-06
308.15 K	0.000469	0.000374	0.000432	0.000614	0.0173	8.96e-05	9e-06
313.15 K	0.00057	0.00044	0.000499	0.00071	0.0181	9.92e-05	1.13e-05
318.15 K	0.000681	0.000503	0.000566	0.00082	0.0189	0.000108	1.4e-05
